System: HIV
Assay: EC50 of Table 1 (antiviral activity, method not described)
Format: cell-based
Details: Human immunodeficiency virus 1

In order of rising EC50:
1. CC(C)(C)NC(=O)[C@@H]1C[C@@H]2CCCC[C@@H]2CN1C[C@@H](O)[C@H](Cc1ccccc1)NC(=O)C1CCCS(=O)(=O)C1 (stereo partly drawn) [Example 7]  12 nM
2. CC(C)CCN(C[C@@H](O)[C@H](Cc1ccccc1)NC(=O)C1CCCS(=O)(=O)C1)S(=O)(=O)c1ccccc1 (stereo partly drawn) [Example 8]  19 nM
3. CC(C)CCN(C[C@@H](O)[C@H](Cc1ccccc1)NC(=O)C1CCCS(=O)(=O)C1)C(=O)NC(C)(C)Cn1ccnc1 (stereo partly drawn) [Example 4a]  295 nM
